Values of other authors, collected in article PMC11187563, “The importance of tyrosines in multimers of cyclic RGD nonapeptides: towards αvβ6-integrin targeted radiotherapeutics” (RSC Medicinal Chemistry, 2024).

Test system: αvβ6-integrin
Conditions: compared with its two siblings with one Phe replaced by a Tyr; cited from earlier work

Question: For cyclo[FRGDLAFp(NMe)K], which “αvβ6-integrin affinity and subtype selectivity” value is on record?
Answer: slightly better αvβ6-integrin affinity and subtype selectivity
